{"source": "paper PMC5673907", "about": "(Clinical and Translational Science, 2017)", "origin": "cited, not measured here", "test_system": "HDL inflammatory index", "conditions": "simvastatin 40 mg daily", "data": [{"smiles": "CCC(C)(C)C(=O)O[C@H]1C[C@@H](C)C=C2C=C[C@H](C)[C@H](CC[C@@H]3C[C@@H](O)CC(=O)O3)[C@H]21", "note": "[simvastatin]", "values": [{"measurement": "Mean HII after statin", "result": "above 1.0 UR"}, {"measurement": "Drop in HII", "setting": "6 weeks, statin-naive CHD/equivalent risk", "result": 28, "unit": "%"}]}]}
